{"source": "patent US20100298141A1", "about": "“SUBSTITUTED PYRIDINE N-OXIDE HERBICIDES” (E. I. DU PONT DE NEMOURS AND COMPANY, priority 2007, published 2010)", "key": {"[1]": {"tested_on": "common ragweed", "assay": "Test C pre-/postemergence test", "type": "in vivo, Ambrosia elation", "summary_of_the_method": "(§1)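 Seeds were planted and treated preemergence with test chemical in a non-phytotoxic solvent mixture containing surfactant. Postemergence applications of the same formulation went onto plants 2 to 18 cm tall (1- to 4-leaf stage). A dash marks no test result.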"}, "[2]": {"tested_on": "johnsongrass", "assay": "Test C pre-/postemergence test", "type": "in vivo, Sorghum halepense", "summary_of_the_method": "as §1"}, "[3]": {"tested_on": "downy brome", "assay": "Test C pre-/postemergence test", "type": "in vivo, Bromus tectorum", "summary_of_the_method": "as §1"}, "[4]": {"tested_on": "wheat", "assay": "Test A pre-/postemergence greenhouse test", "type": "in vivo, Triticum aestivum", "conditions": "for Wheat plant response rating: 0 to 100 scale", "summary_of_the_method": "(§2)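 Test compounds in non-phytotoxic solvent with surfactant were applied as a preemergence soil spray to seeded loam/sand pots and, concurrently, postemergence to plants at 2–10 cm, one- to two-leaf stage. About ten days in greenhouse, then injury visually rated against untreated controls.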"}, "[5]": {"tested_on": "crabgrass", "assay": "Test A pre-/postemergence greenhouse test", "type": "in vivo, Digitaria sanguinalis", "conditions": "for Crabgrass, Large plant response rating: 0 to 100 scale", "summary_of_the_method": "as §2"}, "[6]": {"tested_on": "soybean", "assay": "Test C pre-/postemergence test", "type": "in vivo, Glycine max", "summary_of_the_method": "as §1"}, "[7]": {"tested_on": "giant foxtail", "assay": "Test C pre-/postemergence test", "type": "in vivo, Setaria faberii", "summary_of_the_method": "as §1"}, "[8]": {"tested_on": "umbrella sedge", "assay": "Test C flooded paddy test", "type": "in vivo, Cyperus difformis", "conditions": "Flood", "summary_of_the_method": "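In-water treatment: compound dosed into 3 cm flood over soil, water level unchanged throughout. Controls run alongside; visual assessment at day 13–15.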"}, "[9]": {"tested_on": "giant foxtail", "assay": "Test A pre-/postemergence greenhouse test", "type": "in vivo, Setaria faberi", "conditions": "for Foxtail, Giant plant response rating: 0 to 100 scale", "summary_of_the_method": "as §2"}, "[10]": {"tested_on": "morningglory", "assay": "Test A pre-/postemergence greenhouse test", "type": "in vivo, Ipomoea spp.", "conditions": "for Morningglory plant response rating: 0 to 100 scale", "summary_of_the_method": "as §2"}, "[11]": {"tested_on": "Goosegrass", "assay": "Test C pre-/postemergence test", "type": "in vivo, Eleusin indica", "summary_of_the_method": "as §1"}, "[12]": {"tested_on": "morningglory", "assay": "Test C pre-/postemergence test", "type": "in vivo, Ipomoea coccinea", "summary_of_the_method": "as §1"}, "[13]": {"tested_on": "lambsquarters", "assay": "Test C pre-/postemergence test", "type": "in vivo, Chenopodium album", "summary_of_the_method": "as §1"}, "[14]": {"tested_on": "cocklebur", "assay": "Test C pre-/postemergence test", "type": "in vivo, Xanthium strumarium", "summary_of_the_method": "as §1"}, "[15]": {"tested_on": "corn", "assay": "Test C pre-/postemergence test", "type": "in vivo, Zea mays", "summary_of_the_method": "as §1"}, "[16]": {"tested_on": "woolly cupgrass", "assay": "Test C pre-/postemergence test", "type": "in vivo, Eriochloa villosa", "summary_of_the_method": "as §1"}, "[17]": {"tested_on": "yellow nutsedge", "assay": "Test C pre-/postemergence test", "type": "in vivo, Cyperus esculentus", "summary_of_the_method": "as §1"}, "[18]": {"conditions": "31 g ai/ha, Preemergence, scale 0 to 100"}, "[19]": {"conditions": "62 g ai/ha, preemergence, scale 0 (no effect) to 100 (complete control)"}, "[20]": {"conditions": "preemergence, 125 g ai/ha, scale 0 (no effect) to 100 (complete control)"}, "[21]": {"conditions": "Postemergence, 125 g ai/ha, 0 is no effect, 100 is complete control"}, "[22]": {"conditions": "Postemergence, 500 g ai/ha, 0 is no effect, 100 is complete control"}, "[23]": {"conditions": "Preemergence, 125 g ai/ha, 0 no effect, 100 complete control"}, "[24]": {"conditions": "Preemergence, 500 g ai/ha, 0 to 100 scale where 0 is no effect and 100 is complete control"}}, "data": [{"smiles": "CC(c1c(C(F)(F)F)nn(C)c1Cl)S(=O)(=O)c1cccc[n+]1[O-]", "note": "(centres unmarked) [Compound 10]", "values": [{"measurement": "Ragweed plant response rating", "setting": "[1]; [18]", "value": 60}, {"measurement": "Ragweed plant response rating", "setting": "[1]; [19]", "value": 80}, {"measurement": "Plant response rating (0 to 100), Ragweed", "setting": "[1]; Preemergence, 250 g ai/ha", "value": 100}, {"measurement": "Ragweed plant response rating", "setting": "[1]; [20]", "value": 100}, {"measurement": "Johnsongrass plant response rating", "setting": "[2]; [18]", "value": 70}, {"measurement": "Johnsongrass plant response rating", "setting": "[2]; [19]", "value": 100}, {"measurement": "Plant response rating (0 to 100), Johnsongrass", "setting": "[2]; Preemergence, 250 g ai/ha", "value": 100}, {"measurement": "Johnsongrass plant response rating", "setting": "[2]; [20]", "value": 100}, {"measurement": "Bromegrass, Downy plant response rating", "setting": "[3]; [18]", "value": 0}, {"measurement": "Bromegrass, Downy plant response rating", "setting": "[3]; [19]", "value": 0}, {"measurement": "Plant response rating (0 to 100), Bromegrass, Downy", "setting": "[3]; Preemergence, 250 g ai/ha", "value": 70}, {"measurement": "Bromegrass, Downy plant response rating", "setting": "[3]; [20]", "value": 10}, {"measurement": "Wheat plant response rating", "setting": "[4]; [21]", "value": 50}, {"measurement": "Wheat plant response rating", "setting": "[4]; [22]", "value": 70}, {"measurement": "Wheat plant response rating", "setting": "[4]; [23]", "value": 60}, {"measurement": "Plant response rating, Wheat", "setting": "[4]; [24]", "value": 80}, {"measurement": "Crabgrass, Large plant response rating", "setting": "[5]; [21]", "value": 80}, {"measurement": "Crabgrass, Large plant response rating", "setting": "[5]; [22]", "value": 90}, {"measurement": "Crabgrass, Large plant response rating", "setting": "[5]; [23]", "value": 90}, {"measurement": "Plant response rating, Crabgrass, Large", "setting": "[5]; [24]", "value": 100}, {"measurement": "Soybean plant response rating", "setting": "[6]; [18]", "value": 0}, {"measurement": "Soybean plant response rating", "setting": "[6]; [19]", "value": 0}, {"measurement": "Plant response rating (0 to 100), Soybean", "setting": "[6]; Preemergence, 250 g ai/ha", "value": 10}, {"measurement": "Soybean plant response rating", "setting": "[6]; [20]", "value": 5}, {"measurement": "Foxtail, Giant plant response rating", "setting": "[7]; [18]", "value": 85}, {"measurement": "Foxtail, Giant plant response rating", "setting": "[7]; [19]", "value": 100}, {"measurement": "Plant response rating (0 to 100), Foxtail, Giant", "setting": "[7]; Preemergence, 250 g ai/ha", "value": 100}, {"measurement": "Foxtail, Giant plant response rating", "setting": "[7]; [20]", "value": 100}, {"measurement": "Plant response rating, Sedge, Umbrella", "setting": "[8]; 31 g ai/ha, scale 0 to 100 (0 no effect, 100 complete control)", "value": 40}, {"measurement": "Plant response rating, Sedge, Umbrella", "setting": "[8]; 62 g ai/ha, scale 0 to 100, 0 no effect, 100 complete control, 13 to 15 days", "value": 80}, {"measurement": "Plant response rating, Sedge, Umbrella", "setting": "[8]; 125 g ai/ha, scale 0 to 100, 0 no effect, 100 complete control, 13 to 15 days", "value": 90}, {"measurement": "Plant response rating, Sedge, Umbrella", "setting": "[8]; 250 g ai/ha, scale 0 to 100 (0 no effect, 100 complete control)", "value": 90}, {"measurement": "Foxtail, Giant plant response rating", "setting": "[9]; [21]", "value": 80}, {"measurement": "Foxtail, Giant plant response rating", "setting": "[9]; [22]", "value": 90}, {"measurement": "Foxtail, Giant plant response rating", "setting": "[9]; [23]", "value": 100}, {"measurement": "Plant response rating, Foxtail, Giant", "setting": "[9]; [24]", "value": 100}, {"measurement": "Morningglory plant response rating", "setting": "[10]; [21]", "value": 20}, {"measurement": "Morningglory plant response rating", "setting": "[10]; [22]", "value": 90}, {"measurement": "Morningglory plant response rating", "setting": "[10]; [23]", "value": 80}, {"measurement": "Plant response rating, Morningglory", "setting": "[10]; [24]", "value": 90}, {"measurement": "Goosegrass plant response rating", "setting": "[11]; [18]", "value": 100}, {"measurement": "Goosegrass plant response rating", "setting": "[11]; [19]", "value": 100}, {"measurement": "Plant response rating (0 to 100), Goosegrass", "setting": "[11]; Preemergence, 250 g ai/ha", "value": 100}, {"measurement": "Goosegrass plant response rating", "setting": "[11]; [20]", "value": 100}, {"measurement": "Morningglory plant response rating", "setting": "[12]; [18]", "value": 85}, {"measurement": "Morningglory plant response rating", "setting": "[12]; [19]", "value": 100}, {"measurement": "Plant response rating (0 to 100), Morningglory", "setting": "[12]; Preemergence, 250 g ai/ha", "value": 100}, {"measurement": "Morningglory plant response rating", "setting": "[12]; [20]", "value": 100}, {"measurement": "Lambsquarters plant response rating", "setting": "[13]; [18]", "value": 0}, {"measurement": "Lambsquarters plant response rating", "setting": "[13]; [19]", "value": 98}, {"measurement": "Plant response rating (0 to 100), Lambsquarters", "setting": "[13]; Preemergence, 250 g ai/ha", "value": 100}, {"measurement": "Lambsquarters plant response rating", "setting": "[13]; [20]", "value": 100}, {"measurement": "Cocklebur plant response rating", "setting": "[14]; [18]", "value": 0}, {"measurement": "Cocklebur plant response rating", "setting": "[14]; [19]", "value": 0}, {"measurement": "Plant response rating (0 to 100), Cocklebur", "setting": "[14]; Preemergence, 250 g ai/ha", "value": 0}, {"measurement": "Cocklebur plant response rating", "setting": "[14]; [20]", "value": 0}, {"measurement": "Corn plant response rating", "setting": "[15]; [18]", "value": 0}, {"measurement": "Corn plant response rating", "setting": "[15]; [19]", "value": 5}, {"measurement": "Plant response rating (0 to 100), Corn", "setting": "[15]; Preemergence, 250 g ai/ha", "value": 95}, {"measurement": "Corn plant response rating", "setting": "[15]; [20]", "value": 60}, {"measurement": "Cupgrass, Woolly plant response rating", "setting": "[16]; [18]", "value": 75}, {"measurement": "Cupgrass, Woolly plant response rating", "setting": "[16]; [19]", "value": 75}, {"measurement": "Plant response rating (0 to 100), Cupgrass, Woolly", "setting": "[16]; Preemergence, 250 g ai/ha", "value": 100}, {"measurement": "Cupgrass, Woolly plant response rating", "setting": "[16]; [20]", "value": 100}, {"measurement": "Nutsedge, Yellow plant response rating", "setting": "[17]; [18]", "value": 60}, {"measurement": "Nutsedge, Yellow plant response rating", "setting": "[17]; [19]", "value": 98}, {"measurement": "Plant response rating (0 to 100), Nutsedge, Yellow", "setting": "[17]; Preemergence, 250 g ai/ha", "value": 100}, {"measurement": "Nutsedge, Yellow plant response rating", "setting": "[17]; [20]", "value": 98}]}]}
